# Source: patent US12411143B2, “CD146 and uses thereof as a biomarker and as a therapeutic target in the diagnosis and treatment of fibrosis” (ASSISTANCE PUBLIQUE HÔPITAUX DE MARSEILLE, priority 2018, dated 2025)
# Key:
# [1] = system: ECFC; test: ECFC proliferation assay; type: cell-based, human; settings: siRNA or plasmid transfection, in the presence of GM6001 10 μM
# Description: A: Effect of siRNA targeting I10-sCD146 and I5-13-sCD146 on proliferation of ECFC. Experiments were performed in the presence of GM6001 10 μM. Results are mean values of 4 different experiments and representative pictures of the cells in one experiment are given.
# B: Effect of over-expression of I10-sCD146 (p-I10-sCD146), I5-13-sCD146 (p-I5-13-sCD146) and shed sCD146 (p-shed sCD146) realized by plasmid transfection on proliferation of ECFC. Experiments were performed in the presence of GM6001 10 μM.
# C: Effect of recombinant proteins I10-sCD146, I5-13-sCD146 and shed sCD146 50 ng/ml on the proliferation of ECFC. Experiments were performed in the presence of GM6001 10 μM. Results are mean values of 4 different experiments.
# Experiments were performed as previously described (Stalin et al., 2013).
# [2] = system: ECFC; test: Permeability of ECFC monolayer to dextran-FITC; type: cell-based, human; settings: siRNA or plasmid transfection
# Description: D: ECFC were transfected with siRNA targeting ADAM10 or Tace and with a control siRNA (C). The permeability of the ECFC monolayer grown on semi-permeable filters was determined using dextran-FITC. Results are the mean values+/−SEM of 3 experiments.
# E: ECFC were transfected with plasmid vectors encoding ADAM10 (p-ADAM10) or Tace (p-Tace) and with a control plasmid vector (C). The permeability of the ECFC monolayer grown on semi-permeable filters was determined using dextran-FITC. Results are the mean values+/−SEM of 3 experiments. *: P<0.05, **: P<0.01, ***: P<0.001, experimental vs Control.
# ECFC were seeded at 60,000 cells per well on membrane inserts (porosity 1 μm) of a 24-multiwell double chamber system (Multiwell Insert System, BD Biosciences, Le Pont de Claix, France) after siRNA transfection or not. Confluent endothelial monolayers were then incubated for 24 h in EGM-2 medium in the presence or absence of the different forms of sCD146. The FITC-dextran (sigma) was added at the apical surface of the cells and was allowed to migrate for 1.5 h at 37° C. Basolateral FITC-dextran was then measured using a Cytofluor Series 4000 Fluorescence (PerSeptiveBiosystems, Framingham, MA).
# [3] = system: ECFC; test: Soluble CD146 secretion in ECFC (ELISA); type: cell-based, human
# Description: A: Secretion of soluble CD146 (CD146s) was determined in ECFC in response to 24 h of treatment with 20 ng/ml TNF, 20 ng/ml VEGF, 5 ng/ml TGFb, 50 ng/ml netrin, 50 ng/ml Wnt5a and 50 ng/ml Wnt3a.
# B: The effect of the pan-inhibitor GM6001 was tested on CD146s secretion in ECFC cells by ELISA. Experiments were performed in control conditions and after treatment with 20 ng/ml TNF for 24 h. […] A dose-dependence of GM6001 effect was performed between 1 and 50 μM. Results are the mean values+/−SEM of 5 experiments.
# C: The effect of furin convertase inhibitor (IF) was tested at 50 μMon CD146s secretion in control condition and after treatment with TNF 20 ng/ml for 24 h. Results are the mean values+/−SEM of 3 experiments.
# D: Effect of TIMP-1, -2 and -3 (1 μg/ml) was tested on CD146s secretion in control condition and after treatment with 20 ng/ml TNF. Results are the mean values+/−SEM of 3 experiments. *: P<0.05, **: P<0.01, ***: P<0.001, experimental vs Control
# A: ECFC were transfected with siRNA targeting the short (shCD146) or the long (IgCD146) isoforms of CD146 and with a control siRNA (C). Soluble CD146 (sCD146) secretion was determined. Results are the mean values+/−SEM of 4 different experiments.
# B: ECFC were transfected with siRNA targeting MT1-MMP, MMP2, ADAM10 or Tace and with a control siRNA (C). Soluble CD146 (sCD146) secretion was determined. In one condition, cells were treated with GM6001 10 μM. Results are the mean values+/−SEM of 5 different experiments.
# A: ECFC were transfected with siRNA targeting the short (shCD146) or the long (IgCD146) isoforms of CD146 and with a control siRNA (C) and soluble CD146 (sCD146) secretion was determined in basal condition and in cells treated for 24 h with TNF 20 ng/ml. Results are the mean values +/−SEM of 5 different experiments.
# B: ECFC treated for 24 h with 20 ng/ml TNF were transfected with siRNA targeting Tace, ADAM10, MT1-MMP and with a control siRNA (C) and soluble CD146 (sCD146) secretion was determined. Results are the mean values +/−SEM of 3 different experiments.
# Endothelial Colony Forming Cells (ECFC) were cultured in endothelial EGM-2 MV medium as previously described (Delorme B et al., 2005).
# SiRNA designed to silence the different isoforms of sCD146 were generated. A control siRNA was also used in each experiment. siRNAs were introduced in endothelial cells using the Silence magmagnetofection kit as described by the manufacturer (OZ Biosciences).
# Shed sCD146 was assayed using the commercial ELISA assay (CY-QUANT sCD146, Biocytex, Marseille). Plates were coated with specific mouse monoclonal anti-human CD146 F(ab′)2 fragments. 10 μL of sera was added to each well and incubated for 30 minutes at room temperature. After incubation, the plates were washed five times, followed by incubation with a specific HRP-coupled monoclonal antibody (7A4-HRP, 1 mg/ml, Biocytex, Marseille, France) at a 1:1 000 dilution in a specific diluent for 30 minutes at room temperature and then washed five times. 200 μL of tetramethylbenzidine (TMB) substrate was incubated for approximately 20 minutes at room temperature. The colorimetric reaction was then stopped by the addition of 100 μL of an acid solution. The intensity of the signal was directly related to the concentration of sCD146 initially contained in the sample. For detecting the two spliced isoforms of sCD146 (I5-13-sCD146 and I10-sCD146), the same immunoassay was used (Biocytex). The protocol was modified only for the second antibody (detection antibody) that was replaced by the anti-I5-13-sCD146 or anti-I10-sCD146 antibodies coupled to HRP.
# [4] = system: mouse ischemic hind limb model; test: Mouse hind limb ischemia model; type: in vivo
# Description: A: Ischemic mice were treated with PBS or 2 μg of rh-sCD146/rh-I10-sCD146/rh-I5-13-sCD146 or VEGF. Blood perfusion rate was monitored by laser-Doppler. Results are mean values of 6 different animals in each group and expressed as % of the control leg. *, **, ***: P<0.05, P<0.01, P<0.001, I10-sCD146 vs. PBS; $$, $$$: P<0.01, P<0.001, I5-13-sCD146 vs. PBS; ##, ###: P<0.01, P<0.001, shed sCD146 vs. PBS; £: P<0.05, VEGF vs. PBS.
# B: Blood vessels examination in hind limb muscle sections from control (PBS) and shed rh-sCD146/rh-I10-sCD146/rh-I5-13-sCD146 treated animals 28 days after surgery. Vessels are labelled with isolectin B4.**, ***: P<0.01, P<0.001, experimental vs control. $: P<0.05, I10-sCD146 vs I5-13-sCD146.
# C: Angiographic pictures of control (PBS) and shed sCD146/I10-sCD146/I5-13-sCD146 treated animals at D28. Pictures are representative of the 6 animals in each group. Average of the density of the vessels was expressed as right versus left leg in the different parts of the legs (calf, thigh) and in the whole leg. *, **: P<0.01, P<0.001 experimental vs PBS in calf; $: P<0.05, experimental vs PBS in thigh; #, ##: P<0.05, P<0.01, experimental vs PBS in whole leg.
# In sections of muscles from ischemic mice, vascularisation was visualized with isolectin B4 (Lifetechnologies) ( 1/100). Tissue sections were examined by fluorescence microscopy (Leica sp5, Leica, Nanterre, France).
# Female mice were subjected to unilateral hind limb ischemia by complete resection of the entire left femoral artery. After surgery, animals were split in four treatment groups: one control group injected in ischemic adductor muscles twice a week with PBS for 28 days; three experimental groups treated as the control groups with the three different recombinant human soluble CD146 (rh-sCD146, rh-I5-13-sCD146, rh-I10-sCD146) 2 μg.
# The ratio of the ischemic versus normal hind limb blood flow was measured using a laser doppler blood flow analyzer. At different time points post-surgery (days 1, 3, 7, 14, 21 and 28), animals were subjected to 3 consecutive laser scannings over the regions of interest (leg and feet). Blood flow was expressed as the ischemic versus normal hind limb ratio.
# The animals were deeply anesthetised with mix of Ketamine Xylasine (100 mg/kg and 10 mg/kg respectively) and perfused intracardially with 2 ml of lipiodole. CT 3D images were obtained with a microPET/microCT rodent model scanner (nanoPET/CTO, Mediso) with features below: 70 kVp energy, exposure time of 300 ms and 720 projections and were quantified.
# [5] = system: ECFC; test: mRNA expression of sCD146 isoforms in ECFC (qPCR); type: cell-based, human; settings: ECFC; 24 h treatment (WNT5a 15 min, WNT3a 1 h)
# Description: C: The mRNA expression of I10-sCD146 and I5-13-sCD146 isoforms was analyzed by qPCR in ECFC after treatment of the cells for 24 h with the recombinant shed soluble CD146 50 ng/ml, VEGF 20 ng/ml, TNF 20 ng/ml, TGF beta 5 ng/ml, and netrin 50 ng/ml. Cells were also treated for 15 min with WNT5a 200 ng/ml and 1 h with WNT3a 50 ng/ml. Results are the mean values +/−SEM of 3 experiments. *: P<0.05, experimental vs Control.
# Total cellular RNA was isolated from cells, reverse transcribed into cDNA and the resulting cDNA was subjected to qPCR.
Substance,proliferation of ECFC [1],permeability of ECFC monolayer to dextran [2],reduction of sCD146 secretion by siRNA ([3]; 24 h TNF 20 ng/ml),effect of siRNA on sCD146 secretion ([3]; control condition),further results
siRNA targeting I10-sCD146: siRNA targeting I10-sCD146; sens CCCUCCCUCUGGGUAGAGACCAGGU (antisense ACCUGGUCUCUACCCAGAGGGAGGG; chemistry not given here),inhibited the proliferation of ECFC,–,–,–,–
"Tace siRNA: siRNA targeting Tace; sens 5′CAGGAUUUAAAGGUUAUGGAA (antisense UUCCAUAAACCUUUAAAUCCUG; listed as RNA, chemistry not given here)",–,did not modify it,25%,–,–
VEGF [reference compound],–,–,–,–,"secretion of soluble CD146 in response to stimuli ([3]; 24 h, 20 ng/ml TNF, 20 ng/ml VEGF, 5 ng/ml TGFb, 50 ng/ml netrin, 50 ng/ml Wnt5a): increased; vascularisation of muscle (isolectin B4 labelling) ([4]; 28 days after surgery, compared to PBS): vascularisation was increased; vessel density in calf, thigh and whole leg (angiography quantification) ([4]; D28, compared to PBS): significantly increased; I5-13-sCD146 mRNA level [5]: not modified; I10-sCD146 mRNA level [5]: down-regulated"
siRNA targeting I5-13-sCD146: siRNA targeting I5-13-sCD146; sens UGGACAUCUAGACGGCUGCUCGUUU (antisense AAACGAGCAGCCGUCUAGAUGUCCA; chemistry not given here),inhibited the proliferation of ECFC,–,–,–,–
IgCD146 siRNA: siRNA targeting the long isoform of CD146; sens 5′CCCGUCUCGUAAGACCGAACUUGUA (antisense UACAAGUUCGGUCUUACGAGACGGG; chemistry not given here),–,significantly increased endothelial permeability,about 60%,reduced sCD146 secretion,reduction of sCD146 secretion by siRNA ([3]; control condition): around 75%
ADAM10 siRNA: siRNA targeting ADAM10; sens 5′GAAUGGUAGAACAAGGUGAtt (sense GAAUGGUAGAACAAGGUGATT; antisense UCACCUUGUUCUACCAUUCCA; chemistry not given here),–,decreased,60%,able to inhibit sCD146 secretion,–
